The values that follow are results of earlier work, collected in PMC8550792, “Evolution of kinase polypharmacology across HSP90 drug discovery” (Cell Chemical Biology, 2021).

Set-up in all cases: method as in Becher et al., 2013
Series [1] concerns the target ABL1. The settings on record: chemoproteomics; ref Becher et al., 2013; read-out: Kd,app (ATP-Mg), ABL1; cited from earlier work.
Series [2] addresses ABL2. The settings on record: chemoproteomics; ref Becher et al., 2013; read-out: Kd,app (ATP-Mg), ABL2; cited from earlier work.
Series [3] deals with DDR1. The settings on record: chemoproteomics; ref Becher et al., 2013; read-out: Kd,app (ATP-Mg), DDR1; cited from earlier work.

On to `Nc1ncnc2c1ncn2[C@@H]1O[C@H](COP(=O)(O)OP(=O)(O)OP(=O)(O)O)[C@@H](O)[C@H]1O` [ATP-Mg], for which the figures for the Kd in series [1], in series [2] and in series [3] were 37 to 99 µM, 423 µM and more than 1000 µM, respectively.
